# Assay results taken from patent publication US9618453B2, “Aggregation induced emission of fluorescent bioprobes and methods of using the same” (THE HONG KONG UNIVERSITY OF SCIENCE AND TECHNOLOGY, priority 2011, dated 2017).
# Experiments:
# BSA (35 Cys) = BSA (35 Cys) (Bos taurus, UniProt P02769); test: Fluorescent labeling of Cys residues of protein with TPEMBR, SDS-PAGE; parameters: species or system bovine; conditions: series of dye/thiol ratios
# Method: 2.5 μL Tris-HCl (1 M), 2.5 μL TCEP (20 mM), 5 μL BSA (1 mg/mL, 15 μM), and 30 μL urea (8 M in water) was added to a 1.5 mL Eppendorf tube and mixed well. The mixture was incubated at room temperature for 30 min to pre-reduce the disulfide bonds with TCEP. Then, 10 μL of the TPEMBR DMSO stock solution (2.5 mM 5×) was added to the system and made the final volume 50 μL. The reaction mixture was incubated for 3 hours at 50° C. in an Eppendorf Thermomixer. Then, samples were cooled either to room temperature for instant use or frozen for eventual use.
# In order to ensure that the Cys residues were sufficiently labeled with TPEMBR, a longer reaction time (usually overnight) at or below room temperature was required. Alternatively, the reaction time could be reduced if labeling was carried out at 50° C. To verify the time-dependence of labeling efficiency, bovine serum albumin (BSA) samples were labeled with TPEMBR for different times ranging from 10 min to 4 h and analyzed by SDS-PAGE. The fluorescence intensity of the labeled BSA increased as the reaction time was extended. The maximum intensity under specific labeling conditions was observed after 3 h and remained unchanged even with an additional 1 h of reaction time (FIGS. 11a and 11b). […] The time-dependent labeling effect provides a way to determine the desirable DOL according to different applications by simply controlling the labeling time. Meanwhile, a lower temperature labeling process with a longer reaction time could be a better choice to obtain fluorescent proteins while maintaining their native structures.
# BSA samples were subjected to labeling with different dye concentrations. The SDS-PAGE fluorescence intensity of labeled BSA increased with increasing dye concentration. […] Further increasing the dye concentration could give higher fluorescence intensity due to nonspecific labeling. Clearly, the DOL of protein samples can be controlled by varying the dye concentration.
# Specific labeling of Cys residues by TPEMBR was examined through the labeling of proteins with different Cys contents. BSA (35 Cys), yeast enolase (single Cys) and horse myoglobin (0 Cys) were labeled with 0.5 mM of TPEMBR, respectively. The corresponding fluorescent products were analyzed on gel. […] The results further confirmed the specificity of TPEMBR to Cys residue when the working concentration of 0.5 mM was used.
# BSA was labeled by each dye with a series of varying dye/thiol ratios. After the electrophoresis, the gel fluorescent image was taken under UV excitation and the fluorescence intensity was obtained from three independent experiments. Fluorescence intensities normalized with the sample with the lowest dye concentration are plotted versus the dye/thiol ratio (FIG. 16). […] This self-quenching effect is inevitable for self-quenching dyes such as 5-BMF and limits these dyes' application on quantification of proteins. In contrast, detection and quantification of proteins with high contents of Cys can be easily achieved by using AIE active molecules such as TPEMBR.
# [1] = biological target: bovine serum albumin (BSA) (Bos taurus, UniProt P02769); test: SDS-PAGE staining of BSA with TPENCS (prestaining, poststaining), compared with CBB and FITC; conditions: for LOD / limit of detection (LOD): BSA on SDS-PAGE gel, CBB restaining of the same gel; for LOD: TPENCS poststaining; for limit of detection (LOD): TPENCS prestaining; for LOD on nitrocellulose membrane: after transfer from gel; for self-quenching effect versus F/P ratio: equal amount of BSA, series of dye concentrations
# Chain of bovine serum albumin (BSA) (P02769 25-607): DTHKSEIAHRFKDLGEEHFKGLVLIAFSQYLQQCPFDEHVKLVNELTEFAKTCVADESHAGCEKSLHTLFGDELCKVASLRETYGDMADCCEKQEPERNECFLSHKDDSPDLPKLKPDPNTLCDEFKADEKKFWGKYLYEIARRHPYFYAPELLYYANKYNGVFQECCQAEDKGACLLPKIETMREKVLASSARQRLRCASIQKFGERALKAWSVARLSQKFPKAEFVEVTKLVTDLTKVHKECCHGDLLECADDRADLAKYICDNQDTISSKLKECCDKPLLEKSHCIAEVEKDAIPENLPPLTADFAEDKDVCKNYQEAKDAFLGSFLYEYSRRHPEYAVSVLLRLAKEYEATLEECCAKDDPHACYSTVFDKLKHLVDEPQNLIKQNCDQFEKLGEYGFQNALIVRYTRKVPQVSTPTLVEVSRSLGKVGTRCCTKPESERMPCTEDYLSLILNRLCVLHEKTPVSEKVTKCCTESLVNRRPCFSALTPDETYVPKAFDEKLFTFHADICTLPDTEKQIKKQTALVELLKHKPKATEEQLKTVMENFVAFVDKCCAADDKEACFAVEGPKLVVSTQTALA
# Method: The protein samples were treated with denaturizing 4× sample buffer containing 62.5 mM Tris (pH 8.5), 20% (v/v) glycerol, 4% SDS (w/v), and 3% (w/v) DTT for 5 min at 85˜95° C. in Protein Lobind Eppendorf cups. Serial dilutions of the proteins were labeled and loaded onto the gel lanes. Electrophoresis was carried out on self-cast polyacrylamide mini-gels (1 mm thick) using a discontinuous buffer system. The separation gel (pH 8.8) contained 12% polyacrylamide. The stacking gel (pH 6.8) contained 4% polyacrylamide. Both gels have an acrylamide/bis ratio of 37.5:1. The running buffer contained 25 mM Tris (pH 8.6), 192 mM glycine and 0.1% SDS (w/v) in water. All solutions were freshly prepared prior to use. SDS-PAGE was carried out on a vertical polyacrylamide gel system at a current of 15 mA until the protein bands reached the interface of the separating gel. Separation was performed at 100 V for two hours.
# Fluorescence prestaining of proteins for SDS-PAGE gels was applied prior to the denaturation step. About 1 mg of the protein was dissolved in 1 mL of 0.1 M sodium bicarbonate buffer solution (15 μM). 10 μL of TPENCS DMSO stock solution (5 mM) was added to 100 μL protein solution. The pH was optimized to ˜9 by adding 1 M sodium bicarbonate buffer. The reaction mixture was incubated for 2 h at 37° C. in an Eppendorf Thermomixer. Then, samples were cooled either to room temperature for instant use or frozen for eventual use.
# 2.5 g of Coomassie blue R250 was dissolved in 1000 mL of 50% (v/v) methanol, 10% (v/v) acetic acid, and 40% (v/v) water with stirring as needed. The solution was filtered to remove any insoluble material. The final concentration of Coomassie blue R250 was 0.25% (w/v). After electrophoresis, the apparatus was disassembled and the gel was immerged into CBB solution. The gel was stained at room temperature overnight with gentle agitation. The Coomassie stain was removed by aspiration after staining. The gel was then immerged into the destaining solution composed of 50% (v/v) methanol, 10% (v/v) acetic acid, and 40% (v/v) water which allowed the gel to destain with gentle agitation. The destaining step was repeated several times, removing destaining solution at each change by aspiration. The destaining was continued until the protein bands were seen clearly without any background staining of the gel.
# The protocol of gel fluorescent poststaining with TPENCS was similar to that of the CBB poststaining. The only difference was that the composition of the staining solution was prepared by mixing 1 mL DMSO stock solution of TPENCS (5 mM) with 20 mL 10% SDS aqueous (w/v) solution, and the pH was optimized to ˜9.0 by adding 1 M sodium bicarbonate buffer. The destaining solution was 10% SDS aqueous (w/v) solution. Similar to the destaining protocol of Coomassie brilliant blue, the gel was immerged into the 10% SDS aqueous (w/v) solution and destained with gentle agitation. The destaining solution was changed every two hours and the whole destaining process was finished within six hours.
# Since nearly all kinds of proteins have reactive amine groups (lysine residues) on their molecular chains, bovine serum albumin (BSA), a commonly used protein, was employed as a test sample to verify the staining effect of TPENCS. The prestained BSA was loaded onto the gel lane b and a pure BSA sample was loaded on lane c at the same time as a control. After electrophoresis, the gel fluorescent image was taken under UV excitation within the Gel Doc XR+ documentation system (FIG. 2a). […] The gel was then introduced to the poststaining procedure and the fluorescent image was again obtained (FIG. 2b).
# [2] = Photoluminescence in THF/water mixtures with different water fractions (aggregation induced emission); assay type: physicochemical
# From the text: The AIE of TPENCS is illustrated in FIG. 1. […] With water content ranging from 0-70%, the fluorescence intensity remained at a very low level. When the water concentration was in the 80-90 vol % range, a rapid and dramatic increase of the fluorescence intensity with increasing water content was observed (FIG. 1b). The PL intensity of TPENCS in the water/THF solution with a water fraction of 90 vol % was approximately 50-fold higher than that in the mixture with 70% water. The quantum efficiency of TPENCS was 52.2% in the solid state.
# Similar to other AIE active molecules, TPEMBR only gave weak emission in good solvents such as THF. […] To quantify the effect of water content on the degree of fluorescent emission enhancement, the photoluminescence intensity of TPEMBR was measured where the fraction of water was increased from 0 to 90 vol %. With the water content in the range of 0-70%, the fluorescent intensity remained at a very low level. With the water fraction reaching the 80-90 vol % range, a rapid and dramatic increase of the fluorescent intensity was observed (FIG. 9b). The photoluminescence intensity of TPEMBR in the water/THF solution with a water fraction of 90 vol % was approximately 50-fold stronger than that in the mixture with 70% water. In the solid state, the quantum efficiency of TPEMBR was determined to be 31.7%.
# The AIE of SITC is illustrated in FIGS. 17a and 17b. The wavelength at maximum absorption of SITC was at 363 nm and the emission maximum was at 490 nm. […] To quantify the effect of water content on the elevation of the fluorescent emission, the photoluminescence intensity of SITC was measured with concentration of water increasing from 0 to 90 vol %. With water content ranging from 0-70%, the fluorescent intensity remained at a very low level. When the water concentration was in the 80-95 vol % range, a rapid and dramatic increase of the fluorescent intensity with increasing water content was observed (FIG. 17b). The photoluminescence intensity of SITC in the water/THF solution with a water fraction of 95 vol % was approximately 50-fold higher than that in the mixture with 70% water. The quantum efficiency of SITC was 45.8% in the solid state.
# (§1) Tetrahydrofuran (THF; Labscan) was distilled under nitrogen from sodium benzophenone ketyl immediately prior to use. Acrylamide was purchased from Bio-Rad. Aminoallyl-dUTP (aa-dUTP), dNTPs, DNase I (RNase-free), DNA Polymerase I, Klenow Fragment exo-, Random Hexamer Primer, Long PCR Enzyme Mix and GeneJET™ PCR Purification Kit, GeneRuler™ 100 bp Plus DNA Ladder (ready-to-use, 100-3000 bp), 6×DNA Loading Dye were purchased from Fermentas (Thermo Scientific). Deep VentR™ exo-DNA Polymerase was purchased from New England Biolabs (NEB). Synthesized oligonucleotides (primers) were purchased from Tech Drogon Limited. GelRed™ Nucleic Acid Gel Stain (10000× in water) was purchased from Biotium. Other chemicals, reagents and solvents were all purchased from Aldrich or Invitrogen. ^1H and ^13C NMR spectra were measured on a Bruker ARX 400 NMR spectrometer using CDCl3 as solvent. High-resolution mass spectra (HRMS) were taken on a Finnigan TSQ 7000 triple quadrupole spectrometer in a MALDI-TOF mode. UV spectra were measured on a Milton Roy Spectronic 3000 Array spectrophotometer. Fluorescence (FL) spectra were recorded on a Perkin-Elmer LS 55 spectrofluorometer. FL quantum yields (ΦF) of amorphous powders of siloles were measured using C-701 Time-Resolved Spectrofluorometer with the integrating sphere as accessory.
# Structure of dye is confirmed by standard spectroscopic methods (FIGS. 23, 26a, and 27a). In order to confirm TPEITC is AIE-active, we investigated its fluorescence in THF/water mixtures with different water fractions. […] TPEITC molecules with hydrophobic aromatic cores precipitated and became aggregate in the nonsolvent mixture. Aggregation blocks the nonradiative relaxation channels and populates the radiative decay, thus resulting in high luminescence. […]
# [3] = UV absorption of SITC for DOL calculation (Beer-Lambert law); assay type: physicochemical
# Method: The 1061 bp template DNA was a PCR product of plasmid DNA. dTTP was replaced with increasing amount of SITC-dUTP. DOL of labeled DNA (number of dyes per 100 bases) were calculated from UV absorption base on Beer-Lambert law. The calculated molar extinction coefficient (ε) of SITC is 10277 cm^−1M^−1 and its correction factor (CF) is 2.08.
# [4] = Fluorescence quantum efficiency in the solid state; assay type: physicochemical
# From the text: as §1
# Chain of BSA (35 Cys) (P02769 25-607): as above
compound,measurement,setting,value
"O=C1OC2(c3ccc(O)cc3Oc3cc(O)ccc32)c2ccc(CBr)cc21 [5-BMF, reference compound]",self-quenching effect versus dye/thiol ratio,BSA (35 Cys),30 times
"CCOc1ccc(Nc2ccc(C(=C3C=CC(=[N+](CC)Cc4cccc(S(=O)(=O)[O-])c4)C=C3)c3ccc(N(CC)Cc4cccc(S(=O)(=O)[O-])c4)cc3)cc2)cc1.[Na+] [CBB, reference compound]",LOD,[1],remained the same
same,limit of detection (LOD),[1],0.2 µg
"C[Si]1(C)C(c2ccc(CN=C=S)cc2)=C(c2ccccc2)C(c2ccccc2)=C1c1ccc(CN=C=S)cc1 [SITC, 1,1-dimethyl-2,5-bis[4-(isothiocyanatemethyl)phenyl]-3,4-diphenyl silole]",emission maximum,[2],490 nm
same,wavelength at maximum absorption,[2],363 nm
same,photoluminescence intensity relative to the mixture with 70% water,"[2]; water/THF solution, water fraction 95 vol %",approximately 50 fold
same,calculated molar extinction coefficient (ε),[3],10277 cm^−1M^−1
same,correction factor (CF),[3],2.08
same,quantum efficiency,[4],45.8%
S=C=NCc1ccc(C(=C(c2ccccc2)c2ccccc2)c2ccccc2)cc1 [TPEITC],fluorescence intensity (I) relative to pure THF solution (I0),"[2]; THF/water mixture, water content 90 vol %",about 36177 fold
"S=C=NCc1ccc(C(=C(c2ccccc2)c2ccc(CN=C=S)cc2)c2ccccc2)cc1 [TPENCS, 1,2-bis[4-(isothiocyanatemethyl)phenyl]-1,2-diphenylethene]",PL intensity relative to the mixture with 70% water,"[2]; water/THF solution, water fraction 90 vol %",approximately 50 fold
same,quantum efficiency,[4],52.2%
same,LOD,[1],0.1 µg
same,limit of detection (LOD),[1],0.2 µg
same,LOD on nitrocellulose membrane,[1]; poststaining,1 µg
same,effect on protein migration,[1]; prestained versus poststained BSA bands,no significant effect on protein migration rate
same,LOD on nitrocellulose membrane,[1]; prestaining,2 µg
same,self-quenching effect versus F/P ratio,[1]; prestaining,kept increasing
"fluorescein isothiocyanate [FITC, reference compound]",self-quenching effect versus F/P ratio,[1]; prestaining,1000 times
